SMILES strings stand for the structures. Bounds are passed on as bounds.

In series [1] the target is T1, Citron Rho-interacting kinase (Homo sapiens, UniProt O14578).
For a further series, the system named is JVM-3. The experiment in a line: Antiproliferative activity against human JVM-3 cells assessed as cell viability by standard PRISM assay. In kind it is functional, cell-based.
Series [2] addresses T1, Citron Rho-interacting kinase. The experiment in a line: Binding affinity to NanoLuc fused-CITK (unknown origin) expressed in HEK293T cells assessed as dissociation constant NanoBRET Target Engagement Intracellular Kinase Assay. In kind it is cell-based. Background: Bioluminescence resonance energy transfer reports proximity on the nanometre scale.
Series [3] has the same target. Description: Binding affinity to NanoLuc fused-CITK kinase domain (unknown origin) expressed in HEK293T cells assessed as dissociation constant NanoBRET Target Engagement Intracellular Kinase Assay. It counts as cell-based.
A short description of series [4]: AUC in CD-1 disease model mouse plasma at 30 mg/kg, po measured after 24 hrs. It counts as ADME, organism-based. Conditions: CD-1, mouse.
For a further series, the target named is CYP2D6 (Homo sapiens, UniProt P10635). Description: Inhibition of CYP2D6 (unknown origin) at 10 uM by LC/MS/MS analysis relative to control. In kind it is ADME.
Chain of CYP2D6 (P10635 whole entry): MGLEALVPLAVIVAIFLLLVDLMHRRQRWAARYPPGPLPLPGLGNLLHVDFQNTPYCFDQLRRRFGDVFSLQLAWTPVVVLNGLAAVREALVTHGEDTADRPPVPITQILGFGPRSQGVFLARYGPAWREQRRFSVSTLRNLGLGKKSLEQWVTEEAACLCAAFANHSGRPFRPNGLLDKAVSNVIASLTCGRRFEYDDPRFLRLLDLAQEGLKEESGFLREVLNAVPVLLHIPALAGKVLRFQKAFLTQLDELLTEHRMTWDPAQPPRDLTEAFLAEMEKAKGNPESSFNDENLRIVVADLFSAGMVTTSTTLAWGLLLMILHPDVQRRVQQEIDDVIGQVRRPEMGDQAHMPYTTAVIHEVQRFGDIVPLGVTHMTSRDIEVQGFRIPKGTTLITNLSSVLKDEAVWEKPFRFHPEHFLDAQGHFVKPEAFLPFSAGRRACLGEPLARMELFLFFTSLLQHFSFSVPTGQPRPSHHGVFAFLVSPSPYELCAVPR
Series [5] in a line: AUC in Sprague-Dawley rat at 10 mg/kg, po measured upto 24 hrs. In kind it is ADME, organism-based. Conditions: in vivo.
Series [6] is described as follows: Half life in Sprague-Dawley rat at 10 mg/kg, po measured upto 24 hrs. It counts as ADME, organism-based. Particulars: in vivo.
A short description of series [7]: Oral bioavailability in Sprague-Dawley rat at 10 mg/kg measured upto 24 hrs. In kind it is ADME, organism-based. Particulars: in vivo.
Another series concerns Hs-578T. Description: Antiproliferative activity against human Hs-578T cells assessed as cell viability incubated for 48 hrs by CellTiter-Glo cell viability assay. In kind it is functional. Background: ATP-based viability assays read luminescence as a measure of living cells.
Series [8] is described as follows: Cmax in Sprague-Dawley rat at 1 mg/kg, iv measured upto 24 hrs. In kind it is ADME, organism-based. Conditions: in vivo.
A short description of series [9]: Cmax in CD-1 disease model mouse brain at 30 mg/kg, po measured after 24 hrs. In kind it is ADME, organism-based. Conditions: CD-1, mouse.
In the next series the test system is 786-0. The experiment in a line: Antiproliferative activity against human 786-0 Panel cells assessed as cell viability incubated for 48 hrs by CellTiter-Glo cell viability assay. In kind it is functional.
The nature of series [10]: Volume of distribution at steady state in Sprague-Dawley rat at 1 mg/kg, iv measured upto 24 hrs. In kind it is ADME, organism-based. Particulars: in vivo, read-out: Vdss.
A short description of series [11]: AUC in Sprague-Dawley rat at 1 mg/kg, iv measured upto 24 hrs. In kind it is ADME, organism-based. Particulars: in vivo.
Series [12] can be described thus: Half life in Sprague-Dawley rat at 1 mg/kg, iv measured upto 24 hrs. In kind it is ADME, organism-based. Particulars: in vivo.
For the next series, the target named is CYP2C9 (Homo sapiens, UniProt P11712). Description: Inhibition of CYP2C9 (unknown origin) at 10 uM by LC/MS/MS analysis relative to control. In kind it is ADME.
Chain of CYP2C9 (P11712 whole entry): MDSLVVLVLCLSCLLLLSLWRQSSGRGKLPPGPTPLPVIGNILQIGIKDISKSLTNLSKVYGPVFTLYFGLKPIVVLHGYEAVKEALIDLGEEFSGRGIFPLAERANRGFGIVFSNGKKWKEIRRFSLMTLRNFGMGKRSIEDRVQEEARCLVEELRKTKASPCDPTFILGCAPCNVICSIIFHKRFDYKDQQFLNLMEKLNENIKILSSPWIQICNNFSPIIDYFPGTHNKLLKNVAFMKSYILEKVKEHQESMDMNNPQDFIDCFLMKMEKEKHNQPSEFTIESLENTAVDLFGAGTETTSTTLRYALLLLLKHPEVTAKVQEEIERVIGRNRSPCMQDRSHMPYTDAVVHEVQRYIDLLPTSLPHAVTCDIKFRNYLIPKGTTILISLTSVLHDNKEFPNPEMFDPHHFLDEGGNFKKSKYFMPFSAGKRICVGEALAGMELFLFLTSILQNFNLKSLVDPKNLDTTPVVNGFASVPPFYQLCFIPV
The test system of series [13] is Panel NCI-60 (60 carcinoma cell lines). The experiment in a line: Antiproliferative activity against human Panel NCI-60 (60 carcinoma cell lines) assessed as cell viability incubated for 48 hrs by CellTiter-Glo cell viability assay. It counts as functional.
Series [14] in a line: Unbound fraction in rat plasma measured after 4.5 hrs by LC-MS/MS analysis. It counts as ADME, cell-free.
A short description of series [15]: Unbound fraction in human plasma measured after 4.5 hrs by LC-MS/MS analysis. It counts as ADME, cell-free.
For a further series, the system named is COLO 205. Description: Antiproliferative activity against human COLO 205 Panel cells assessed as cell viability incubated for 48 hrs by CellTiter-Glo cell viability assay. It counts as functional.
Series [16] is described as follows: Plasma clearance in Sprague-Dawley rat at 1 mg/kg, iv measured upto 24 hrs. In kind it is ADME, organism-based.
The nature of series [17]: Apparent permeability across apical to basolateral side in dog MDCK cells incubated for 1 hr by LCMS analysis. In kind it is ADME, cell-based, Canis lupus familiaris.
A short description of series [18]: AUC in CD-1 disease model mouse brain at 30 mg/kg, po measured after 24 hrs. In kind it is ADME, organism-based. Particulars: CD-1, mouse.
The nature of series [19]: Cmax in CD-1 disease model mouse plasma at 30 mg/kg, po measured after 24 hrs. In kind it is ADME, organism-based. Conditions: CD-1, mouse.
For another series, the target named is CYP3A4 (Homo sapiens, UniProt P08684). The experiment in a line: Inhibition of CYP3A4 (unknown origin) at 10 uM by LC/MS/MS analysis relative to control. It counts as ADME.
Chain of CYP3A4 (P08684 whole entry): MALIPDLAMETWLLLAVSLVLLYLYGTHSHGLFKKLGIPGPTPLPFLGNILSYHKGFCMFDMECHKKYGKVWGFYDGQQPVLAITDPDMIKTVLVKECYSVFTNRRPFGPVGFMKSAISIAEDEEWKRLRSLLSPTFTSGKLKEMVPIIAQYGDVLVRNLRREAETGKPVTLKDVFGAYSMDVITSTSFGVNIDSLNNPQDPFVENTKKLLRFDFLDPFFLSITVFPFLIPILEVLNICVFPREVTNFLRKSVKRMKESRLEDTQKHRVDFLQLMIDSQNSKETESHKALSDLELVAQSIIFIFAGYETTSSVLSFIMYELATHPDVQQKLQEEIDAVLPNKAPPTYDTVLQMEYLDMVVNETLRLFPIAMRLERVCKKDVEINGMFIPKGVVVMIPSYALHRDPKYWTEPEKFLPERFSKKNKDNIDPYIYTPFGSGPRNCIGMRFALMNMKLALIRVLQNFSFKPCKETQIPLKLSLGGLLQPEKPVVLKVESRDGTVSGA
Series [20] in a line: Cmax in Sprague-Dawley rat at 10 mg/kg, po measured upto 24 hrs. Conditions: in vivo. In kind it is ADME, organism-based.

T1 sequence (O14578 whole entry): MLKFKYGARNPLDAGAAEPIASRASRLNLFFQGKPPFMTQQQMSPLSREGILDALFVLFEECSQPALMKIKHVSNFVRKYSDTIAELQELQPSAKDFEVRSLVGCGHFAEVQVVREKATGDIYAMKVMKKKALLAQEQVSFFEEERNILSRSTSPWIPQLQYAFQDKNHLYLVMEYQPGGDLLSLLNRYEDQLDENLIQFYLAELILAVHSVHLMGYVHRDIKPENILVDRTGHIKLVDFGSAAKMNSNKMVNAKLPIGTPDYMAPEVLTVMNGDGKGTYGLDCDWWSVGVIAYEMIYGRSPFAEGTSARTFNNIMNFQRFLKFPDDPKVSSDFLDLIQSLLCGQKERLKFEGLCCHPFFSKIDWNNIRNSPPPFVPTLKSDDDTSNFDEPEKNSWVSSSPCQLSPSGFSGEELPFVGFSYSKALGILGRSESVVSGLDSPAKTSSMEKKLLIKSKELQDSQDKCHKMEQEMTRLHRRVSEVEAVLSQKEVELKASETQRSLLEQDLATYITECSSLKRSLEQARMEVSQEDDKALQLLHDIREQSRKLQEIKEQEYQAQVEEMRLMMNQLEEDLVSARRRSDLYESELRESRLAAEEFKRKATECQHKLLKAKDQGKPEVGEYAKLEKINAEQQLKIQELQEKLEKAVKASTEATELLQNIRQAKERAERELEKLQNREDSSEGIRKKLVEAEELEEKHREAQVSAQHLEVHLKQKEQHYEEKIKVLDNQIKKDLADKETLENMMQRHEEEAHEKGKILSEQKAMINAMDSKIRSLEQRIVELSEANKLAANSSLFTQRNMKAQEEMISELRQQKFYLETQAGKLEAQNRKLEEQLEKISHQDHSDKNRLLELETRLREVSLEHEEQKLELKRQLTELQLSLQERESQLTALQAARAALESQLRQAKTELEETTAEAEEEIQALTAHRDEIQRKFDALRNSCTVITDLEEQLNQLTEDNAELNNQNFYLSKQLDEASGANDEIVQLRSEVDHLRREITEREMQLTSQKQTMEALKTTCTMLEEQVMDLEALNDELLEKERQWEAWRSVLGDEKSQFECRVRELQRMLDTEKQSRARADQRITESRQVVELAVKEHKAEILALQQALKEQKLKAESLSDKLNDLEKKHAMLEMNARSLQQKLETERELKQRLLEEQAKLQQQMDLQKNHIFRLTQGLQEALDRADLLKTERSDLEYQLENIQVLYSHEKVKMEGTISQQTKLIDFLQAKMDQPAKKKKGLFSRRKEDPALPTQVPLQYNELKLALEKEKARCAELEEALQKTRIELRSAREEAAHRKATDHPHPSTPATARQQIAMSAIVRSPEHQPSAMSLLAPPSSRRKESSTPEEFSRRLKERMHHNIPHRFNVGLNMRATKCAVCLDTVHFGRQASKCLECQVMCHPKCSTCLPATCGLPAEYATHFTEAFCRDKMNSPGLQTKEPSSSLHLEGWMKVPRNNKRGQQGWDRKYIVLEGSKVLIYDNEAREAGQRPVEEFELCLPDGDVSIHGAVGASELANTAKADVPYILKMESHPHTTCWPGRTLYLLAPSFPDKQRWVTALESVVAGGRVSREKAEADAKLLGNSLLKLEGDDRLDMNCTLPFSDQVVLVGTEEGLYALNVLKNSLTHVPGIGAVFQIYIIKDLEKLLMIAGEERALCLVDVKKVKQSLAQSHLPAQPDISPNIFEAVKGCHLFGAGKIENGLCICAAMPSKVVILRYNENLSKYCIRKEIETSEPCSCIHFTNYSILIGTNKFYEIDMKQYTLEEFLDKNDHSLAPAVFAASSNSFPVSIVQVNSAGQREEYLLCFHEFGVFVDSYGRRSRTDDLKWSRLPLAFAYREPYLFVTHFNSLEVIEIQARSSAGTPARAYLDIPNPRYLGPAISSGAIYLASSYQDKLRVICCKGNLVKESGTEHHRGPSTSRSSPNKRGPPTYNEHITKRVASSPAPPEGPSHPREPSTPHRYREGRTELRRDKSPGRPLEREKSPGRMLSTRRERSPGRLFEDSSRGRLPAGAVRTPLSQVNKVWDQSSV

For orientation: IC50 means the concentration at which inhibition is half-maximal. As for `Cc1cc2c(-c3ccc(NC(=O)[C@H](N)[C@@H](O)C(C)C)cc3C)ccnc2[nH]1`, the IC50 in series [1] came to 5.5 nM; in the series with JVM-3 it was 4400 nM.

The molecule `CC(C)C[C@H](N)C(=O)Nc1ccc(-c2ccnc3[nH]ccc23)cc1` had an IC50 in series [1] of 42 nM.

In series [1], `CC(N)c1ccc(-c2ccnc3[nH]ccc23)cc1` (centres undefined) had a half-inhibitory concentration (IC50) of 500 nM.

`Cc1cc2c(-c3ccc(NC(=O)[C@@H](N)[C@H](O)C(C)C)cc3C)ccnc2[nH]1` showed an IC50 in [1] of 16 nM.

In turn, `Cc1cc2c(-c3ccc(NC(=O)[C@H](N)CC(C)(C)C)cc3C)cncc2[nH]1` displayed an IC50 in series [1] of more than 30000 nM. For the same molecule, the Kd result in [2] and in [3] was “Not Active” in each case.

With `C[C@@H](N)c1ccc(C(=O)Nc2ccnc3[nH]ccc23)cc1` [Y-39983], the IC50 in series [1] stood at 150 nM.

Turning to `CC(N)C(=O)Nc1ccc(-c2ccnc3[nH]ccc23)cc1` (centres undefined), half-maximal inhibition in series [1] (IC50) required 250 nM.

Turning to `CC(C)CC(CN)C(=O)Nc1ccc(-c2ccnc3[nH]ccc23)cc1` (centres undefined), the IC50 in series [1] is 410 nM.

By AUC is commonly meant concentration integrated over time. As usually defined, the inhibition is the drop in the measured response relative to a control, in per cent. Read a high inhibition as strong suppression. The term half-life denotes the time needed for the level to fall by half in the phase considered. Read a low half-life as fast loss. As usually defined, the GI50 is the concentration giving 50% growth inhibition. As usually defined, the Cmax is the peak of the concentration-time curve. As usually defined, the clearance is the volume of plasma or blood freed of the substance per unit of time. A low value points to inefficient removal. What is called Papp A→B is how fast a substance crosses the layer from the apical side. As to `Cc1cc2c(-c3ccc(NC(=O)[C@H](N)CC(C)(C)C)cc3C)ccnc2[nH]1`, the AUC at 24 h in series [4] amounted to 90.5 µM·h; in series [18], 7.71 µM·h. The inhibition at 10 µM at CYP2D6 stood at 56.2%; on CYP2C9, 6.7%; against CYP3A4 it was 28.3%. Also, the results for the AUC in [5] and in [11] were 7.3 µM·h and 10.2 µM·h, respectively. Moreover, the values for the half-life in series [6] and in series [12] were 4 h and 4.3 h, respectively. Also, the F in series [7] came out at 72%. The GI50 was less than 2000 nM with Hs-578T, less than 2000 nM in the series with 786-0, 7000 nM in series [13] and less than 2000 nM in the series with COLO 205. In addition, the Cmax worked out at 5.8 µM in [8], 1.02 µM in series [9], 12.9 µM in [19] and 12.3 µM in series [20]. For the same molecule, in series [10], the Vd came out at 0.91 L/kg. Besides, the Fu in series [14] was determined as 0.26%; in series [15], 0.52%. Besides, the clearance in series [16] worked out at 4.4 mL/min/kg. Further, the Papp A→B at 1 h in series [17] is 21.3 ×10⁻⁶ cm/s.

Source of the values: ChEMBL document CHEMBL5537207, “Discovery and Characterization of Selective, First-in-Class Inhibitors of Citron Kinase” (J Med Chem, 2024).
